Patent US20220288020A1, “METHOD OF TREATING NEOPLASTIC DISEASES WITH A CDC42-SPECIFIC INHIBITOR” (Children's Hospital Medical Center, priority 2019, published 2022)

How the values were obtained:
[1] = test system: MC38 mouse colon cancer cells; test: Therapeutic CASIN treatment upon tumor onset, MC38 tumor model in C57BL/6 mice, with or without Anti-CD4/CD8 T-cell depletion; assay type: in vivo
Method: FIG. 5. Therapeutic CASIN treatment causes anti-tumor T-cell immunity. C57BL/6 mice were inoculated (s.c.) with MC38 (8×10^5) at day 1 and injected (i.p.) with Anti-CD4/CD8 neutralizing antibodies (5 mg/kg body weight for each antibody) or isotype control antibody once every 4 days starting at day 1. Starting from day 10 when tumor onset was observed, the mice were treated with vehicle or CASIN as described for FIG. 4 above. Tumor volume was monitored (A). At day 14, depletion of T-cells in peripheral blood from the mice treated with Anti-CD4/CD8 neutralizing antibodies was confirmed by flow cytometry (data not shown). Upon euthanasia, tumors were dissected from isotype control antibody-treated mice. The expression of IFN-γ^+ and IL-17^+ in CD4^+Foxp3^+ cells was analyzed by flow cytometry (B). CD3^+ T-cells were visualized by immunohistochemistry using anti-CD3 antibody (C). The expression of IFN-γ^+ and/or IL-17^+ in CD4^+Foxp3^− (D) and CD8^+ cells (E) was analyzed by flow cytometry. n=5. Error bars indicate SD. **p<0.01; *p<0.05. […]
The Cdc42 conditional knockout mice and CASIN were developed in CCHMC by Dr. Yi Zheng lab (Yang L, Wang L, Zheng Y. Gene targeting of Cdc42 and Cdc42GAP affirms the critical involvement of Cdc42 in filopodia induction, directed migration, and proliferation in primary mouse embryonic fibroblasts. Mol Biol Cell. 2006 November; 17(11):4675-85) (Liu W, Du W, Shang X, Wang L, Evelyn C, Florian M C, A Ryan M, Rayes A, Zhao X, Setchell K, Meller J, Guo F, Nassar N, Geiger H, Pang Q, Zheng Y. Rational identification of a Cdc42 inhibitor presents a new regimen for long-term hematopoietic stem cell mobilization. […] In the examples below, the effects of Cdc42 deletion and CASIN on T-cell immunity against tumor growth of colorectal cancer cells and/or pancreatic cancer cells was evaluated. […]
C57BL/6 mice were injected (s.c.) with MC38 (8×10^5) at day 1 and injected (i.p.) with Anti-CD4/CD8 neutralizing antibodies (5 mg/kg body weight for each antibody) or isotype control antibody once every 4 days starting at day 1. […] Tumor volume was monitored. […]

[2] = test system: MC38 mouse colon cancer cells; test: Prophylactic CASIN treatment, syngeneic MC38 tumor model in C57BL/6 mice; assay type: in vivo
Method: FIG. 4. Prophylactic CASIN causes anti-tumor immunity. C57BL/6 mice were injected (i.p.) with vehicle or 30 mg/kg body weight of CASIN twice a day for one week and then 40 mg/kg body weight of CASIN once a day until the end of the experiment. One day after the first CASIN treatment, the mice were injected (s.c.) with MC38 (8×10^5). Tumor growth was monitored (A). Upon euthanasia, tumors were dissected and the expression of IFN-γ^+, IL-4^+ and/or IL-17^+ within CD4^+Foxp3^+ (B), CD4^+Foxp3^− (C), and CD8^+ (D) cells was analyzed by flow cytometry. n=7. Error bars indicate SD. **p<0.01; *p<0.05. In FIGS. 4(A)-(D), data for vehicle administration is the top line (furthest from the x-axis) in FIG. 4A and left side of each data representation in FIGS. 4(B)-(D); and data for CASIN administration is the bottom line (closest to the x-axis) in FIG. 4(A) and right side of each data representation in FIGS. 4(B)-(D).
The Cdc42 conditional knockout mice and CASIN were developed in CCHMC by Dr. Yi Zheng lab (Yang L, Wang L, Zheng Y. Gene targeting of Cdc42 and Cdc42GAP affirms the critical involvement of Cdc42 in filopodia induction, directed migration, and proliferation in primary mouse embryonic fibroblasts. Mol Biol Cell. 2006 November; 17(11):4675-85) (Liu W, Du W, Shang X, Wang L, Evelyn C, Florian M C, A Ryan M, Rayes A, Zhao X, Setchell K, Meller J, Guo F, Nassar N, Geiger H, Pang Q, Zheng Y. Rational identification of a Cdc42 inhibitor presents a new regimen for long-term hematopoietic stem cell mobilization. Leukemia. 2019 March; 33(3):749-761). In the examples below, the effects of Cdc42 deletion and CASIN on T-cell immunity against tumor growth of colorectal cancer cells and/or pancreatic cancer cells was evaluated. […]
C57BL/6 mice were injected (i.p.) with vehicle or 30 mg/kg body weight of CASIN twice a day for one week and then 40 mg/kg body weight of CASIN once a day until the end of the experiment. […] Tumor growth was monitored. […]

[3] = test system: MC38 mouse colon cancer cells; test: MC38 tumor growth in Cdc42+/- mice treated with AZA; assay type: in vivo; settings: AZA 40 mg/kg i.p. once a day, started three days before MC38 (8×10^5) s.c.; vs Cdc42+/- + vehicle; FIG. 3F
Method: (§1) FIG. 3. […] (A, B) Treg-specific heterozygous deletion of Cdc42 upregulates CAI and alkalizes extracellular pH of Tregs. Splenic CD4^+ YFP^+ Tregs were flow-sorted from WT and Cdc42^+/− mice. CAI expression was detected by Q-PCR (A). Another aliquot of the cells were cultured with Anti-CD3/CD28 and IL-2 for 36 hrs. pH of the culture medium (pHe) was measured by a pH meter. (C, D) Extracellular alkalization destabilizes Tregs. Splenic CD4^+ YFP^+ Tregs from WT mice were cultured as described in B, with regular medium of pH 7.4 or medium of pH 7.56 (C). Alternatively, the cells were cultured with conditional medium (CM) from WT Treg culture or from Cdc42^+/− Treg culture (D). Percentages of IFN-γ^+ cells within Tregs (left) and non-Tregs (right) were analyzed by flow cytometry. (E) Inhibition of CAI by acetazolamide (AZA) rescues instability of Cdc42^+/− Tregs. […] Percentages of IFN-γ^+ cells within Tregs (left) and non-Tregs (right) were analyzed by flow cytometry. […] Three days after starting AZA injection, the mice were inoculated (s.c.) with MC38 (8×10^5) and tumor volume was recorded. n=4-7. […]
(§2) Cdc42^fl/+Foxp3^YFP-Cre and Cdc42^+/+Foxp3^YFP-Cre mice were inoculated (s.c.) with MC38 mouse colon cancer cells (8×10^5) or KPC mouse pancreatic cancer cells (8×10^5). Tumor volume was monitored. […] Quantitative real-time RT-PCR (Q-PCR) confirmed the upregulation of CAI in Cdc42^+/− Tregs (FIG. 3A). […]

[4] = test system: Splenic CD4+ YFP+ Tregs from Cdc42+/- mice; test: Stability of Cdc42+/- Tregs cultured with or without acetazolamide (flow cytometry, IFN-γ+ cells); assay type: cell-based, mouse; settings: Splenic CD4+ YFP+ Tregs from Cdc42+/- mice cultured with AZA; FIG. 3E
Method: as §1, §2

Row | Compound | tumor growth (tumor volume) ([1]; CASIN i.p. 30 mg/kg twice a day for one week then 40 mg/kg once a day from day 10 (tumor onset), isotype control antibody, FIG. 5A) | Treg stability (IFN-γ+ and IL-17+ in tumor CD4+Foxp3+ cells) ([1]; therapeutic CASIN, dissected tumors, flow cytometry, FIG. 5B) | effector T-cells (CD3+ T-cells, IFN-γ-producing CD4+Foxp3- and CD8+ cells) in tumors ([1]; therapeutic CASIN, immunohistochemistry and flow cytometry, FIG. 5C-E) | tumor growth ([2]; CASIN i.p. 30 mg/kg twice a day for one week then 40 mg/kg once a day, started one day before MC38 s.c., vs vehicle, FIG. 4A) | Treg stability (IFN-γ+, IL-4+, IL-17+ within tumor CD4+Foxp3+ cells) ([2]; prophylactic CASIN, dissected tumors, flow cytometry, FIG. 4B) | effector T cells (tumor CD4+Foxp3- and CD8+ cells) ([2]; prophylactic CASIN, dissected tumors, flow cytometry, FIG. 4C, D) | tumor growth (tumor volume) in Cdc42+/- mice [3] | instability of Cdc42+/- Tregs (percentages of IFN-γ+ cells within Tregs) [4]
1 | OCCNC1CCCc2c1[nH]c1ccc(-c3ccccc3)cc21 (centres unmarked) [CASIN] | inhibited tumor growth | Treg instability | increased effector T-cells | suppressing tumor growth | destabilizing Tregs | increasing effector T cells | – | –
2 | CC(=O)Nc1nnc(S(N)(=O)=O)s1 [acetazolamide] | – | – | – | – | – | – | restores tumor growth | rescued the instability
